Data reported in patent publication US8063043B2, “Salts of N-[6-cis-2,6-dimethylmorpholin-4-yl)pyridine-3-yl]-2-methyl-4′-(trifluoromethoxy)[1,1′-biphenyl]-3-carboxamide” (Novartis AG, priority 2008, dated 2011).
Several values for one entry are separate records, joined by “and”; a condition that tells them apart may be missing. Identical values can stand only once. Like-named read-outs stand apart in the source and are kept apart here.

Assays:
[1] = Stability measured by degradation products (DP, HPLC area-%); assay type: physicochemical
Protocol: DPs are analyzed by HPLC (method see Table 3). They are calculated as area-% products. Compositions of the mixtures in mass % are as follows.
For salts in water, acetonitrile was added to dilute the 0.2% slurry to 0.1% clear solution. For salts in methanol, acetonitrile or acetonitrile/water (50:50, v/v), the corresponding solvent or solvent mixture was added to dilute the 0.2% slurry to 0.1% clear solution. For salts in 0.5% CMC, HPMC cellulose 4000 0.5%, or Tween 80, 0.8%, tetrahydrofuran and water were added to dilute the 2% slurry to 0.1% clear solution and to reach tetrahydrofuran/water 50:50 (v/v). For bulk stability samples (including the samples in excipient mixtures), acetonitrile/water (80:20, v/v) was added to make 0.1% clear solution.

[2] = Stability: appearance color (CL); assay type: physicochemical
[3] = Solid form after stress test (XRPD/DSC); assay type: physicochemical; conditions: for Bulk (DSC): change: 2 week 80° C.
[4] = Bulk corrosivity with stainless steel coupon; assay type: physicochemical; conditions: 2 day 80% r.h. with stainless steel coupon; change in the surface of the coupon
[5] = pH of 1% solution or suspension; assay type: physicochemical; conditions: In water
Protocol: The solutions were stirred continuously as the pH was measured.

[6] = Thermogravimetry (weight loss / loss on drying); assay type: physicochemical; conditions: at 150° C.; for Thermogravimetry (weight loss in %): Heating rate 10° C./min; for Loss on drying by TGA (%): Hygroscopicity, as is
[7] = Hygroscopicity, DVS sorption/desorption isotherms; assay type: physicochemical; conditions: for DVS Desorp. Weight % chg. / DVS Sorp. Weight % chg.: 25° C.
Protocol: Sorption/desorption isotherms: Instrument, Surface Measurement System DVS-1 temperature at 25±0.5° C.

[8] = Crystal modification after 72 hours vibration (polymorphism behavior of slurries); assay type: physicochemical
Text: The slurries were filtered and the solids collected for XRPD analyses.

[9] = pH 6.8
[10] = physchem; conditions: 25 °C, thermodynamic from solid, Solubility (approx. at 25° C., mg/ml)
[11] = Wistar rats, 10 mg/kg, suspension
[12] = in vivo; conditions: Wistar, rat, 10 mg/kg, Wistar rats, suspension
[13] = Approximate solubility at 25° C.; conditions: thermodynamic from solid
[14] = 0.2% solutions or suspensions, 2 week 50° C., Acetonitrile
[15] = 0.2% solutions or suspensions, 2 week 50° C., Acetonitrile/Water (50:50)
[16] = 0.2% solutions or suspensions, 2 week 50° C., Methanol
[17] = 0.2% solutions or suspensions, 2 week 50° C., Water
[18] = 2% (or 5%) solutions or suspensions, 1 day room temperature, 0.5% CMC
[19] = 2% (or 5%) solutions or suspensions, 1 day room temperature, HPMC Cellulose 4000 0.5%
[20] = 2% (or 5%) solutions or suspensions, 1 day room temperature, Tween 80, 0.8%
[21] = 2 weeks 50° C., tight container, 1% in mixture 1 (Lactose/maize starch/Aerosil/Magnesiumstearate)
[22] = 2 weeks 50° C., tight container, 1% in mixture 2 (Mannitol/Avicel PH 102/Cutina HR)
[23] = 2 weeks 50° C./75% r.h., 1% in mixture 1
[24] = 2 weeks 50° C./75% r.h., 1% in mixture 2
[25] = Solid state, 2 week 50° C., tight container, Bulk (HPLC)
[26] = Solid state, 2 week 50° C./75% r.h., Bulk (HPLC)
[27] = Solid state, 2 week 80° C., tight container, Bulk (HPLC)
[28] = Solid state, 2 week 80° C./75% r.h., Bulk (HPLC)
[29] = Unstressed drug substance, bulk
[30] = Xenon light (approx. 1200 kLuxh), Bulk (HPLC)
[31] = 0.2% solutions or suspensions, 2 week 50° C., Acetonitrile/Water (50:50), clear solution after stress test (*)
[32] = 0.2% solutions or suspensions, 2 week 50° C., Acetonitrile, clear solution after stress test (*)
[33] = 0.2% solutions or suspensions, 2 week 50° C., Methanol, clear solution after stress test (*)
[34] = 0.2% solutions or suspensions, 2 week 50° C., Water, suspension (↓)
[35] = 2% (or 5%) solutions or suspensions, 1 day room temperature, 0.5% CMC, suspension (↓)
[36] = 2% (or 5%) solutions or suspensions, 1 day room temperature, HPMC Cellulose 4000 0.5%, suspension (↓)
[37] = 2% (or 5%) solutions or suspensions, 1 day room temperature, Tween 80, 0.8%, suspension (↓)
[38] = Solid state, 2 week 50° C., tight container
[39] = Solid state, 2 week 50° C./75% r.h., footnote: new peak in the XRPD pattern compared with unstressed diphosphate
[40] = Solid state, 2 week 80° C./75% r.h., footnote: pattern similar to that of phosphate, with one extra peak
[41] = Xenon light (approx. 1200 kLuxh)
[42] = individual rats, listed as Compound A Sulfate, monosulfate salt

Cc1c(C(=O)Nc2ccc(N3C[C@@H](C)O[C@@H](C)C3)nc2)cccc1-c1ccc(OC(F)(F)F)cc1.Cl [Hydrochloride, mono]
DP [%] [1, 14]: 0.38% | DP [%] [1, 15]: 1.72% | DP [%] [1, 16]: 2.06% | DP [%] [1, 17]: 0.31% | DP [%] [1, 18]: 0.33% | DP [%] [1, 19]: 0.32% | DP [%] [1, 20]: 0.31% | DP [%] [1, 21]: 0.27% | DP [%] [1, 22]: 0.39% | DP [%] [1, 23]: 2.85% | DP [%] [1, 24]: 0.31% | DP [%] [1, 25]: 0.31% | DP [%] [1, 26]: 0.29% | DP [%] [1, 27]: 0.35% | DP [%] [1, 28]: 0.35% | DP [%] [1, 29]: 0.30% | DP [%] [1, 30]: 1.46% | CL [2, 31]: A * | CL [2, 32]: A * | CL [2, 33]: A * | CL [2, 34]: A ↓ | CL [2, 35]: A ↓ | CL [2, 36]: A ↓ | CL [2, 37]: A ↓ | Bulk (XRPD): change [3, 38]: No | Bulk (XRPD): change [3, 39]: No | Bulk (DSC): change ([3]; Solid state, tight container): No | Bulk (XRPD): change [3, 40]: No | Bulk (XRPD): change [3, 41]: No | Bulk corrosivity [4]: No visible change | pH of 1% solution or suspension [5]: 1.69 | Thermogravimetry (weight loss in %) [6]: 0.48% at 150 °C | Loss on drying by TGA (%) [6]: 0.48 at 150 °C % | XRPD after DVS test [7]: No change | DVS Desorp. Weight % chg. ([7]; RH 0.0%): −0.0114% | DVS Sorp. Weight % chg. ([7]; RH 0.0%): −0.0001% | DVS Desorp. Weight % chg. ([7]; RH 25.0%): 0.3799% | DVS Sorp. Weight % chg. ([7]; RH 25.0%): 0.3334% | DVS Desorp. Weight % chg. ([7]; RH 50.0%): 0.4932% | DVS Sorp. Weight % chg. ([7]; RH 50.0%): 0.4660% | DVS Desorp. Weight % chg. ([7]; RH 75.0%): 0.6069% | DVS Sorp. Weight % chg. ([7]; RH 75.0%): 0.5753% | DVS Desorp. Weight % chg. ([7]; RH 85.0%): 0.6817% | DVS Sorp. Weight % chg. ([7]; RH 85.0%): 0.6525% | DVS Desorp. Weight % chg. ([7]; RH 95.0%): 0.8784% | DVS Sorp. Weight % chg. ([7]; RH 95.0%): 0.8784% | Crystal modification after 72 hours vibration (DSC/XRPD/TG) ([8]; 0.1N HCl solution): XRPD pattern | Crystal modification after 72 hours vibration (DSC/XRPD/TG) ([8]; Acetone, N—no, Y—yes): N, no form change | Crystal modification after 72 hours vibration (DSC/XRPD/TG) ([8]; Acetonitrile, N—no, Y—yes): N, no form change | Crystal modification after 72 hours vibration (DSC/XRPD/TG) ([8]; Ethanol, N—no, Y—yes): N, no form change | Crystal modification after 72 hours vibration (DSC/XRPD/TG) ([8]; Ethyl acetate, N—no, Y—yes): N, no form change | Crystal modification after 72 hours vibration (DSC/XRPD/TG) ([8]; Iso Propanol, N—no, Y—yes): N, no form change | Crystal modification after 72 hours vibration (DSC/XRPD/TG) ([8]; Water): Dissociated to free | Final pH of slurry ([8]; Water): Final pH 1.94 | Crystal modification after 72 hours vibration (DSC/XRPD/TG) ([8]; pH 3 buffer): Dissociated to free | Final pH of slurry ([8]; pH 3 buffer): Final pH 2.89 | Crystal modification after 72 hours vibration (DSC/XRPD/TG) ([8]; pH 6.8 buffer): No form change | Final pH of slurry ([8]; pH 6.8 buffer): Final pH 5.93 | Solubility (approx. at 25° C., mg/ml) ([9]; 1 day): 0.000 (Final mg/ml | Final pH of solubility sample [9]: pH 5.93) | solubility at 1 day ([10]; pH 1, simulated gastric fluid): 2 µg/mL | solubility at 1 day ([10]; water): 5 µg/mL

Cc1c(C(=O)Nc2ccc(N3C[C@@H](C)O[C@@H](C)C3)nc2)cccc1-c1ccc(OC(F)(F)F)cc1.O=S(=O)(O)O [Sulfate, mono]
DP [%] [1, 14]: 0.44% | DP [%] [1, 15]: 0.80% | DP [%] [1, 16]: 0.68% | DP [%] [1, 17]: 0.41% | DP [%] [1, 18]: 0.45% | DP [%] [1, 19]: 0.47% | DP [%] [1, 20]: 0.43% | DP [%] [1, 21]: 0.41% | DP [%] [1, 22]: 0.44% | DP [%] [1, 23]: 0.70% | DP [%] [1, 24]: 0.41% | DP [%] [1, 25]: 0.40% | DP [%] [1, 26]: 0.42% | DP [%] [1, 27]: 0.43% | DP [%] [1, 28]: 1.34% | DP [%] [1, 29]: 0.42% | DP [%] [1, 30]: 1.1% | CL [2, 31]: A * | CL [2, 32]: A * | CL [2, 33]: A * | CL [2, 34]: A ↓ | CL [2, 35]: A ↓ | CL [2, 36]: A ↓ | CL [2, 37]: A ↓ | Bulk (XRPD): change [3, 38]: No | Bulk (XRPD): change [3, 39]: No | Bulk (DSC): change ([3]; Solid state, tight container): No | Bulk (XRPD): change [3, 40]: No | Bulk (XRPD): change [3, 41]: No | Bulk corrosivity [4]: No visible change | pH of 1% solution or suspension [5]: 1.45 | Thermogravimetry (weight loss in %) [6]: 1.89% at 150 °C | Loss on drying by TGA (%) [6]: 1.89 at 150 °C % | XRPD after DVS test [7]: No change | DVS Desorp. Weight % chg. ([7]; RH 0.0%): 1.007% | DVS Sorp. Weight % chg. ([7]; RH 0.0%): 0.000% | DVS Desorp. Weight % chg. ([7]; RH 25.0%): 1.256% | DVS Sorp. Weight % chg. ([7]; RH 25.0%): 1.232% | DVS Desorp. Weight % chg. ([7]; RH 50.0%): 1.495% | DVS Sorp. Weight % chg. ([7]; RH 50.0%): 1.455% | DVS Desorp. Weight % chg. ([7]; RH 75.0%): 1.716% | DVS Sorp. Weight % chg. ([7]; RH 75.0%): 1.634% | DVS Desorp. Weight % chg. ([7]; RH 95.0%): 2.330% | DVS Sorp. Weight % chg. ([7]; RH 95.0%): 2.330% | Crystal modification after 72 hours vibration (DSC/XRPD/TG) ([8]; 0.1N HCl solution): XRPD pattern | Crystal modification after 72 hours vibration (DSC/XRPD/TG) ([8]; Acetonitrile, N—no, Y—yes): N, no form change | Crystal modification after 72 hours vibration (DSC/XRPD/TG) ([8]; Ethanol, N—no, Y—yes): N, no form change | Crystal modification after 72 hours vibration (DSC/XRPD/TG) ([8]; Ethyl acetate, N—no, Y—yes): N, no form change | Crystal modification after 72 hours vibration (DSC/XRPD/TG) ([8]; Iso Propanol, N—no, Y—yes): N, no form change | Crystal modification after 72 hours vibration (DSC/XRPD/TG) ([8]; Water): Dissociated to free | Final pH of slurry ([8]; Water): Final pH 1.26 | Crystal modification after 72 hours vibration (DSC/XRPD/TG) ([8]; pH 3 buffer): Dissociated to free | Final pH of slurry ([8]; pH 3 buffer): Final pH 2.00 | Crystal modification after 72 hours vibration (DSC/XRPD/TG) ([8]; pH 6.8 buffer): Dissociated to free | Final pH of slurry ([8]; pH 6.8 buffer): Final pH 1.82 | less exposure in-vivo than the diphosphate salt [11]: about 40% | AUC0-24/dose [11, 42]: 2590 (ng*h/mL)/(mg/kg/day) and 2870 (ng*h/mL)/(mg/kg/day) and 3620 (ng*h/mL)/(mg/kg/day) | Cmax [11, 42]: 1860 ng/mL and 3560 ng/mL | Cmax/Dose [11, 42]: 190 (ng/mL)/(mg/kg/day) (2×) and 360 (ng/mL)/(mg/kg/day) | tmax [11, 42]: 4 h and 2 h and 1 h | Cmax ([12]; Cmax, individual rats): 1900 ng/mL | tmax ([12]; mean tmax): 2.3 h | solubility at 1 day ([13]; 0.1N HCl, pH 1, simulated gastric fluid): 3 µg/mL | solubility at 1 day ([13]; 2-propanol, organic solvent or mixture): 4000 µg/mL | solubility at 1 day ([13]; acetone, organic solvent or mixture): 1700 µg/mL | solubility at 1 day ([13]; acetonitrile, organic solvent or mixture): 1400 µg/mL | solubility at 1 day ([13]; ethanol, organic solvent or mixture): 19700 µg/mL | solubility at 1 day ([13]; ethyl acetate, organic solvent or mixture): 90 µg/mL | solubility at 1 day ([13]; methanol, organic solvent or mixture): 24400 µg/mL | solubility at 1 day ([13]; phosphate buffer, pH 6.8, aqueous buffer): 2 µg/mL | solubility at 1 day ([13]; water): 7 µg/mL
